For data set [1] the following is noted: treatment of certain blood cancers; background statement; cited from earlier work. From the text: RGS2 is rapidly and constitutively degraded by the ubiquitin–proteasomal system ([12], [13]). Dysfunction of this crucial system can lead to accumulation of misfolded or aged proteins, cell cycle arrest, and uncontrolled cell proliferation ([14], [15], [16], [17]), driving various pathologies, including multiple cancers and cardiovascular disease ([18], [19]). Proteasome inhibitors, such as bortezomib (Velcade) and carfilzomib, are used in the treatment of certain blood cancers ([20], [21]). However, the severe side effects associated with these drugs, including neuropathies, fatigue, and anem ...

Data set [2] has as its target T1, FBXO44^FBA (Homo sapiens, UniProt Q9H4M3).
T1 construct: we expressed and purified only this domain for all in vitro studies; 6xHis (N, cleaved yes); MBP (N, cleaved yes); made in house; host or cells: Escherichia coli Rosetta BL21 (λDE3)
T1 sequence (Q9H4M3 71-252 limits assumed): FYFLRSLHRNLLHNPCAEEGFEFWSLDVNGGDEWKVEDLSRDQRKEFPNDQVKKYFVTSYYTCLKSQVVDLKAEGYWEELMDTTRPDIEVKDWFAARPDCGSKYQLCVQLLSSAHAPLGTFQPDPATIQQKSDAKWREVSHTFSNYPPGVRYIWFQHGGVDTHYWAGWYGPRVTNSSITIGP
In words: Surface plasmon resonance, immobilized RGS2^5–16 peptide. The following applies: Biacore X100; peptide immobilized on CM5 chip by amine coupling; FBXO44^FBA analyte 0.29–75 μM, contact time 60 s; nonlinear fit of saturation binding; preliminary. The source says: (§1) However, evidence of a direct interaction between RGS2 and FBXO44 has, until now, not yet been established. Thus, we first aimed to verify that purified FBXO44 would bind the degron sequence in vitro. […] This also circumvented the issue that full-length FBXO44 (as well as all other F-box proteins) is very difficult to express in the absence of an adaptor protein, such as Skp1 ([30]). To test the ability of the FBA domain to bind the RGS2 degron specifically, a peptide corresponding to residues Met^5–Met^16 (MFLAVQHDRCPM; herein referred to as RGS2^5–16; Fig. 1A) was dotted onto a polyvinylidene difluoride (PVDF) membrane at increasing amounts (Fig. 1B). […] The membrane was then incubated with FLAG-tagged FBXO44 FBA domain (FBXO44^FBA) and subjected to immunoblotting using a FLAG antibody. […] To get an estimate of the binding affinity between FBXO44^FBA, we next performed surface plasmon resonance (SPR) with the RGS2^5–16 peptide anchored on the chip and FBXO44^FBA as the analyte.
RGS2^5–16 peptide was immobilized onto a CM5 chip (Cytiva; BR100012) using amine coupling (Cytiva; BR100557) following the manufacturer's protocol. RGS2^5–16 peptide (150 μg/ml) in 10 mM NaOAc, pH 4.0, was loaded into the Biacore X100 sample rack. […] The RU at equilibrium was subtracted from the nonspecific binding detected in Fc1 and measured for each concentration. […]
(In general: In SPR one partner is held on a chip, and binding of the other changes the refractive index at the surface.)

Data set [3] deals with T1, FBXO44^FBA. In words: Dot blot of FLAG-FBXO44^FBA binding to immobilized peptide. The following applies: peptide spotted on PVDF at increasing amounts; 2 μg/ml FLAG-FBXO44^FBA overnight at 4 °C; anti-FLAG.
From the text: as §1
Figure 1 A peptide representing the degron in RGS2 binds FBXO44^FBAin vitro.A, sequence and schematic of the RGS2^5–16 peptide. B, a representative dot blot showing binding of FBXO44^FBA to immobilized RGS2^5–16 peptide. […] The RU at equilibrium was subtracted from the nonspecific binding detected in Fc1 and measured for each concentration. […]

Peptide text beside a SMILES is read from it.

Take `CC(C)C[C@H](NC(=O)[C@H](Cc1ccccc1)NC(=O)c1cnccn1)B(O)O` [bortezomib]: the severe side effects entry in data set [1] is “neuropathies, fatigue, and anemia”.

Turning to `CSCC[C@H](NC(=O)[C@@H]1CCCN1C(=O)[C@H](CCCNC(=N)N)NC(=O)[C@H](CS)NC(=O)[C@H](CC(=O)O)NC(=O)[C@H](Cc1c[nH]cn1)NC(=O)[C@H](CCC(N)=O)NC(=O)[C@@H](NC(=O)[C@H](C)NC(=O)[C@H](CC(C)C)NC(=O)[C@H](Cc1ccccc1)NC(=O)[C@@H](N)CCSC)C(C)C)C(=O)O` [RGS2^5–16] (H-MFLAVQHDCRPM-OH), the Kd (commonly a measure of binding affinity in units of concentration) on FBXO44^FBA [2] was found to be 2.09 µM.

Take `CC(C)C[C@H](NC(=O)[C@H](CCc1ccccc1)NC(=O)CN1CCOCC1)C(=O)N[C@@H](Cc1ccccc1)C(=O)N[C@@H](CC(C)C)C(=O)[C@@]1(C)CO1` [carfilzomib]: in data set [1], the severe side effects entry was “neuropathies, fatigue, and anemia”.

“MCKGLAALPAT [RGS4^1–11, peptide corresponding to the first 11 residues in RGS4, negative control]”: the “FLAG immunoreactivity (FBXO44^FBA binding)” value at FBXO44^FBA [3] was “no signal detected”.

Values taken from publication PMC12554172, “Systematic analysis of the RGS2 degron reveals characteristics of substrate recognition by the F-box protein FBXO44” (The Journal of Biological Chemistry, 2025).
